In ChEMBL document CHEMBL1201862, “PubChem BioAssay data set” (2004):
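Where inhibition never reached the appropriate level, the endpoint shown equals the highest concentration tested. Otherwise, values were interpolated linearly from a five-concentration, 48-hour dose response in 96-well plates. At the GI50, growth is halved.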 The source made the active and inactive calls. Rule as the data show it: active = GI50 up to about 1.1 µM and inactive = higher.

Key:
Experiment in all cases: inhibition of tumour cell growth, NCI panel, 48 h
786-0 = tested on: 786-0
A498 = tested on: A498
A549 = tested on: A549
ACHN = tested on: ACHN
BT-549 = tested on: BT-549
CAKI-1 = tested on: CAKI-1
CCRF-CEM = tested on: CCRF-CEM
COLO 205 = tested on: COLO 205
DLD-1 = tested on: DLD-1
DMS-114 = tested on: DMS-114
DMS-273 = tested on: DMS-273
DU-145 = tested on: DU-145
EKVX = tested on: EKVX
HCC 2998 = tested on: HCC 2998
HCT-116 = tested on: HCT-116
HCT-15 = tested on: HCT-15
HL-60 = tested on: HL-60
HOP-62 = tested on: HOP-62
HOP-92 = tested on: HOP-92
HT-29 = tested on: HT-29
Hs-578T = tested on: Hs-578T
IGROV-1 = tested on: IGROV-1
K562 = tested on: K562
KM-20L2 = tested on: KM-20L2
KM12 = tested on: KM12
LOX IMVI = tested on: LOX IMVI
LXFL 529 = tested on: LXFL 529
M14 = tested on: M14
M19-MEL = tested on: M19-MEL
MCF7 = tested on: MCF7
MDA-MB-231 = tested on: MDA-MB-231
MDA-MB-435 = tested on: MDA-MB-435
MDA-N = tested on: MDA-N
MOLT-4 = tested on: MOLT-4
Malme-3M = tested on: Malme-3M
NCI-H226 = tested on: NCI-H226
NCI-H23 = tested on: NCI-H23
NCI-H460 = tested on: NCI-H460
NCI-H522 = tested on: NCI-H522
NCI/ADR-RES = tested on: NCI/ADR-RES
OVCAR-3 = tested on: OVCAR-3
OVCAR-4 = tested on: OVCAR-4
OVCAR-5 = tested on: OVCAR-5
OVCAR-8 = tested on: OVCAR-8
PC-3 = tested on: PC-3
RPMI-8226 = tested on: RPMI-8226
RXF 393 = tested on: RXF 393
SF-268 = tested on: SF-268
SF-295 = tested on: SF-295
SF-539 = tested on: SF-539
SK-MEL-28 = tested on: SK-MEL-28
SK-MEL-2 = tested on: SK-MEL-2
SK-MEL-5 = tested on: SK-MEL-5
SK-OV-3 = tested on: SK-OV-3
SN12C = tested on: SN12C
SNB-19 = tested on: SNB-19
SNB-75 = tested on: SNB-75
SNB-78 = tested on: SNB-78
SR = tested on: SR
SW-620 = tested on: SW-620
T47D = tested on: T47D
TK-10 = tested on: TK-10
U-251 = tested on: U-251
UACC-257 = tested on: UACC-257
UACC-62 = tested on: UACC-62
UO-31 = tested on: UO-31
XF498 = tested on: XF498
HOP-18 = tested on: HOP-18

SMILES: c1nc(N2CC2)c2cnn(C3CCCCO3)c2n1 (centres undefined)
- GI50 (786-0): > 100 µM (inactive)
- GI50 (A498): > 100 µM (inactive)
- GI50 (A549): > 100 µM (inactive)
- GI50 (ACHN): > 100 µM (inactive)
- GI50 (BT-549): > 100 µM (inactive)
- GI50 (CAKI-1): > 100 µM (inactive)
- GI50 (CCRF-CEM): > 100 µM (inactive)
- GI50 (COLO 205): > 100 µM (inactive)
- GI50 (DLD-1): > 100 µM (inactive)
- GI50 (DMS-114): > 100 µM (inactive)
- GI50 (DMS-273): > 100 µM (inactive)
- GI50 (DU-145): > 100 µM (inactive)
- GI50 (EKVX): > 100 µM (inactive)
- GI50 (HCC 2998): > 100 µM (inactive)
- GI50 (HCT-116): > 100 µM (inactive)
- GI50 (HCT-15): > 100 µM
- GI50 (HL-60): > 100 µM (inactive)
- GI50 (HOP-62): > 100 µM (inactive)
- GI50 (HOP-92): > 100 µM (inactive)
- GI50 (HT-29): > 100 µM (inactive)
- GI50 (Hs-578T): > 100 µM (inactive)
- GI50 (IGROV-1): > 100 µM (inactive)
- GI50 (K562): 36.6 µM (inactive)
- GI50 (KM-20L2): > 100 µM (inactive)
- GI50 (KM12): > 100 µM (inactive)
- GI50 (LOX IMVI): > 100 µM (inactive)
- GI50 (LXFL 529): > 100 µM (inactive)
- GI50 (M14): > 100 µM (inactive)
- GI50 (M19-MEL): > 100 µM (inactive)
- GI50 (MCF7): > 100 µM (inactive)
- GI50 (MDA-MB-231): > 100 µM (inactive)
- GI50 (MDA-MB-435): > 100 µM (inactive)
- GI50 (MDA-N): > 100 µM (inactive)
- GI50 (MOLT-4): > 100 µM (inactive)
- GI50 (Malme-3M): > 100 µM (inactive)
- GI50 (NCI-H226): > 100 µM (inactive)
- GI50 (NCI-H23): > 100 µM (inactive)
- GI50 (NCI-H460): > 100 µM (inactive)
- GI50 (NCI-H522): > 100 µM (inactive)
- GI50 (NCI/ADR-RES): > 100 µM (inactive)
- GI50 (OVCAR-3): > 100 µM (inactive)
- GI50 (OVCAR-4): > 100 µM (inactive)
- GI50 (OVCAR-5): > 100 µM (inactive)
- GI50 (OVCAR-8): > 100 µM (inactive)
- GI50 (PC-3): > 100 µM (inactive)
- GI50 (RPMI-8226): > 100 µM (inactive)
- GI50 (RXF 393): > 100 µM (inactive)
- GI50 (SF-268): > 100 µM (inactive)
- GI50 (SF-295): > 100 µM (inactive)
- GI50 (SF-539): > 100 µM (inactive)
- GI50 (SK-MEL-28): > 100 µM (inactive)
- GI50 (SK-MEL-2): > 100 µM (inactive)
- GI50 (SK-MEL-5): > 100 µM (inactive)
- GI50 (SK-OV-3): > 100 µM (inactive)
- GI50 (SN12C): > 100 µM (inactive)
- GI50 (SNB-19): > 100 µM (inactive)
- GI50 (SNB-75): > 100 µM (inactive)
- GI50 (SNB-78): > 100 µM (inactive)
- GI50 (SR): > 100 µM (inactive)
- GI50 (SW-620): > 100 µM (inactive)
- GI50 (T47D): > 100 µM (inactive)
- GI50 (TK-10): > 100 µM (inactive)
- GI50 (U-251): > 100 µM (inactive)
- GI50 (UACC-257): > 100 µM (inactive)
- GI50 (UACC-62): > 100 µM (inactive)
- GI50 (UO-31): > 100 µM (inactive)
- GI50 (XF498): > 100 µM (inactive)

SMILES: NC(=O)c1csc(C2CCC(CO)O2)n1 (centres undefined)
- GI50 (786-0): > 100 µM (inactive)
- GI50 (A498): > 100 µM (inactive)
- GI50 (A549): > 100 µM (inactive)
- GI50 (ACHN): > 100 µM (inactive)
- GI50 (CAKI-1): > 100 µM (inactive)
- GI50 (CCRF-CEM): > 100 µM (inactive)
- GI50 (COLO 205): > 100 µM (inactive)
- GI50 (DMS-114): > 100 µM (inactive)
- GI50 (DMS-273): > 100 µM (inactive)
- GI50 (EKVX): > 100 µM (inactive)
- GI50 (HCC 2998): > 100 µM (inactive)
- GI50 (HCT-116): > 100 µM (inactive)
- GI50 (HCT-15): > 100 µM
- GI50 (HL-60): > 100 µM (inactive)
- GI50 (HOP-18): > 100 µM (inactive)
- GI50 (HOP-62): > 100 µM (inactive)
- GI50 (HOP-92): > 100 µM (inactive)
- GI50 (HT-29): > 100 µM (inactive)
- GI50 (IGROV-1): > 100 µM (inactive)
- GI50 (K562): > 100 µM (inactive)
- GI50 (KM-20L2): > 100 µM (inactive)
- GI50 (KM12): > 100 µM (inactive)
- GI50 (LOX IMVI): > 100 µM (inactive)
- GI50 (LXFL 529): > 100 µM (inactive)
- GI50 (M14): > 100 µM (inactive)
- GI50 (M19-MEL): > 100 µM (inactive)
- GI50 (MOLT-4): > 100 µM (inactive)
- GI50 (Malme-3M): > 100 µM (inactive)
- GI50 (NCI-H226): > 100 µM (inactive)
- GI50 (NCI-H23): > 100 µM (inactive)
- GI50 (NCI-H460): > 100 µM (inactive)
- GI50 (NCI-H522): > 100 µM (inactive)
- GI50 (OVCAR-3): > 100 µM (inactive)
- GI50 (OVCAR-4): > 100 µM (inactive)
- GI50 (OVCAR-5): > 100 µM (inactive)
- GI50 (OVCAR-8): > 100 µM (inactive)
- GI50 (RPMI-8226): > 100 µM (inactive)
- GI50 (SF-268): > 100 µM (inactive)
- GI50 (SF-295): > 100 µM (inactive)
- GI50 (SF-539): > 100 µM (inactive)
- GI50 (SK-MEL-28): > 100 µM (inactive)
- GI50 (SK-MEL-2): > 100 µM (inactive)
- GI50 (SK-OV-3): > 100 µM (inactive)
- GI50 (SN12C): > 100 µM (inactive)
- GI50 (SNB-19): > 100 µM (inactive)
- GI50 (SNB-78): > 100 µM (inactive)
- GI50 (SW-620): > 100 µM (inactive)
- GI50 (TK-10): > 100 µM (inactive)
- GI50 (U-251): > 100 µM (inactive)
- GI50 (UACC-257): > 100 µM (inactive)
- GI50 (UACC-62): > 100 µM (inactive)
- GI50 (UO-31): > 100 µM (inactive)

SMILES: c1ccc(SC2CCSc3ccccc3C2Sc2ccccc2)cc1 (centres undefined)
- GI50 (786-0): > 100 µM (inactive)
- GI50 (A498): > 100 µM (inactive)
- GI50 (A549): > 100 µM (inactive)
- GI50 (ACHN): > 100 µM (inactive)
- GI50 (CAKI-1): 22.8 µM (inactive)
- GI50 (CCRF-CEM): > 100 µM (inactive)
- GI50 (COLO 205): > 10 µM (inactive)
- GI50 (DLD-1): > 100 µM (inactive)
- GI50 (DMS-114): > 10 µM (inactive)
- GI50 (DMS-273): > 100 µM (inactive)
- GI50 (EKVX): > 100 µM (inactive)
- GI50 (HCC 2998): > 100 µM (inactive)
- GI50 (HCT-116): 9.75 µM (inactive)
- GI50 (HCT-15): > 100 µM
- GI50 (HL-60): 4.73 µM (inactive)
- GI50 (HOP-62): > 100 µM (inactive)
- GI50 (HOP-92): 18.8 µM (inactive)
- GI50 (HT-29): 69.2 µM (inactive)
- GI50 (IGROV-1): > 10 µM (inactive)
- GI50 (K562): > 100 µM (inactive)
- GI50 (KM-20L2): > 100 µM (inactive)
- GI50 (KM12): 56.1 µM (inactive)
- GI50 (LOX IMVI): > 100 µM (inactive)
- GI50 (LXFL 529): > 100 µM (inactive)
- GI50 (M14): > 100 µM (inactive)
- GI50 (M19-MEL): > 10 µM (inactive)
- GI50 (MOLT-4): > 100 µM (inactive)
- GI50 (NCI-H226): > 100 µM (inactive)
- GI50 (NCI-H460): > 100 µM (inactive)
- GI50 (NCI-H522): > 100 µM (inactive)
- GI50 (OVCAR-3): 37 µM (inactive)
- GI50 (OVCAR-4): > 100 µM (inactive)
- GI50 (OVCAR-8): > 100 µM (inactive)
- GI50 (RPMI-8226): 96.4 µM (inactive)
- GI50 (SF-268): > 100 µM (inactive)
- GI50 (SF-295): 35.2 µM (inactive)
- GI50 (SF-539): > 100 µM (inactive)
- GI50 (SK-MEL-5): 20.9 µM (inactive)
- GI50 (SK-OV-3): > 10 µM (inactive)
- GI50 (SN12C): > 100 µM (inactive)
- GI50 (SNB-19): 94.4 µM (inactive)
- GI50 (SNB-75): 19.8 µM (inactive)
- GI50 (SNB-78): > 100 µM (inactive)
- GI50 (SW-620): > 100 µM (inactive)
- GI50 (TK-10): > 100 µM (inactive)
- GI50 (U-251): > 100 µM (inactive)
- GI50 (UACC-257): 27.9 µM (inactive)
- GI50 (UACC-62): > 10 µM (inactive)
- GI50 (UO-31): 6.9 µM (inactive)
- GI50 (XF498): > 100 µM (inactive)
